Like-named read-outs stand apart in the source and are kept apart here.
Target: T1, NPC1 (Cricetulus griseus, UniProt Q9JLG3)
T1 construct: CHO-7 cells in the medium are deprived of cholesterol to induce the LDL receptors biosynthesis; endogenous in cells; host or cells: CHO-7 cells
T1 sequence (Q9JLG3 23-1277): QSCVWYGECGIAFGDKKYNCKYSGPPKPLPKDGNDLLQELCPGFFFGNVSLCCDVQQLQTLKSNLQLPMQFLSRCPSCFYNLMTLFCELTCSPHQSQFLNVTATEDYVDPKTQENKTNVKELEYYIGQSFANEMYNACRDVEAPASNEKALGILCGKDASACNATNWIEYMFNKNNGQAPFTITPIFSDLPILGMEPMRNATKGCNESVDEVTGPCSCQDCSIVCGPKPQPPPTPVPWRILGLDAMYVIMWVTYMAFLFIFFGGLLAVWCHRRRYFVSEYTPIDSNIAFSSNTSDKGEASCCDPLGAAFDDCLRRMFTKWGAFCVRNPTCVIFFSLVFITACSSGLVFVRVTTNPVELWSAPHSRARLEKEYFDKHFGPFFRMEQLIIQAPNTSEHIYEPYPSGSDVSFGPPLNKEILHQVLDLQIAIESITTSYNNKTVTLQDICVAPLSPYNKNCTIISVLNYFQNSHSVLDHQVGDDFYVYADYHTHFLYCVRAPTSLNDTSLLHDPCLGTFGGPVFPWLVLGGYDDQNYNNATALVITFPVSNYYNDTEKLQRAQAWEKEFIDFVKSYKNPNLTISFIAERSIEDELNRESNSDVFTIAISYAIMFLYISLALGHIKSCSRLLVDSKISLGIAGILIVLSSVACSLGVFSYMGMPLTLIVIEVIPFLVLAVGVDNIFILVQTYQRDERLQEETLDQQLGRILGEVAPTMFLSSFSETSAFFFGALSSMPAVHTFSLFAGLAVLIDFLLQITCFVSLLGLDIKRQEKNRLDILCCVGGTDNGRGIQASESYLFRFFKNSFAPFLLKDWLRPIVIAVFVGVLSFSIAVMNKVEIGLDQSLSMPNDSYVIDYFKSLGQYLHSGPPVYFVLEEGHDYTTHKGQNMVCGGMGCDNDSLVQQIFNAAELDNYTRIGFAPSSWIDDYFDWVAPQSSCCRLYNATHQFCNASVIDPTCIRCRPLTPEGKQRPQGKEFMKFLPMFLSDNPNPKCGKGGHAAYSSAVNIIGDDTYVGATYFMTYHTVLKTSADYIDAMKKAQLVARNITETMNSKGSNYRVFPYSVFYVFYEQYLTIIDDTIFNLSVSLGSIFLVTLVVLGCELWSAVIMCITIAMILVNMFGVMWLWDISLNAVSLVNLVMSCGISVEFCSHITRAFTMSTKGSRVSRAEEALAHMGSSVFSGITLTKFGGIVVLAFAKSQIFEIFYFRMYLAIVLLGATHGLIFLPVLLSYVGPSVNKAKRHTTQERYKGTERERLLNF
Experiment: Cholesterol re-esterification (ACAT) assay measuring NPC1-mediated export of cholesterol from lysosomes in CHO-7 cells
Type: cell-based
Conditions: for cholesteryl [14C] oleate formed, Repeat 1 / cholesteryl [14C] oleate formed, Repeat 2: Fig. 2 source data; for cholesteryl [14C] oleate formed, Repeat 3 / cholesteryl [14C] oleate formed, Repeat 4: Supplementary Fig. 3 source data
Excerpt: Itraconazole has three chiral centers (Supplementary Fig. 2a). The pharmaceutical form contains four cis-stereoisomers in a 1:1:1:1 molar ratio (Supplementary Fig. 2a–d). To determine the activity of the cis-stereoisomers, the individual isomers were isolated and identified based on their optical rotation in chloroform following a previous report (Supplementary Fig. 2e)[26]. Then, they were separately tested in a cholesterol re-esterification assay used to measure NPC1-mediated export of cholesterol from lysosomes. Briefly, CHO-7 cells in the medium are deprived of cholesterol to induce the LDL receptors biosynthesis. The cells are then incubated with fetal calf serum (FCS) that contains LDL. The LDL-derived cholesterol will now be transported by functional NPC1 protein from the lysosome to the endoplasmic reticulum (ER). The acyl-CoA:cholesterol actyltransferase named ACAT can now re-esterify the cholesterol in the ER. Therefore, the cells were pulse-labeled with [^14C] oleate and we can measure the synthesis of cholesteroyl [^14C] oleate to evaluate the activity of NPC1 protein. Using this assay, we tested the ability of various itraconazole to inhibit NPC1 activity.
Fig. 2 ACAT activity of itraconazole and ketoconazole in CHO-7 cells. On day 0, CHO-7 cells were set up in medium A with 5% LPDS at 2.5 × 10^5 cells/well in 6-well dish. On day 2, cells were switched to medium A with 5% LPDS containing 50 µM sodium compactin and 50 µM sodium mevalonate. On day 3 the cells received fresh medium B containing compactin and mevalonate with various concentration compounds in the presence of 10% FCS containing lipoproteins. After incubation for 4 h at 37 °C, each cell monolayer was pulse-labeled for 2 h with 0.1 mM sodium [^14C] oleate (5792 dpm/nmol). The cells were then harvested for measurement of their content of cholesteryl [^14C] oleate and [^14C] triglycerides, as described in Methods. […] Itraconazole mixture, isomer A (Supplementary Fig. 2a), isomer B (Supplementary Fig. 2b) and isomer C (Supplementary Fig. 2c) were added at final concentrations of 0.3 μM. The isomer D (Supplementary Fig. 2d), I-Br and ketoconazole were added at final concentrations of 1 μM. The biological repeats are shown as individual values. Source data are provided as a Source Data file.
On day 0, cells were set up in medium A with 5% LPDS at 2.5 × 10^5 cells/well in six-well dish. On day 2, cells were switched to medium A with 5% LPDS containing 50 µM sodium compactin and 50 µM sodium mevalonate. On day 3 the cells received fresh medium B containing compactin and mevalonate with indicated concentration triazole compounds in the presence of 10% FCS containing lipoproteins. After incubation for 4 h at 37 °C, each cell monolayer was pulse-labeled for 2 h with 0.1 mM sodium [^14C] oleate (5792 dpm/nmol). The cells were then harvested for measurement of their content of cholesteryl [^14C] oleate and [^14C] triglycerides.
The rate of incorporation of [^14C] oleate into cholesteryl [^14C] oleate and [^14C] triglycerides by monolayers of NPC1^−/− cells and CHO-7 cells was measured as described previously. In brief, cells were switched to medium containing LPDS supplemented with compactin and mevolonate at 16 h before the experiments. On the day of the experiment, cells were incubated for 4 h with fresh medium containing FCS as a source of cholesterol-containing lipoproteins. Cells were then pulse –labeled for 2 h with 0.1 mM sodium [^14C] oleate. Cells were then washed, and the lipids were extracted in hexane:isopropanol (3:2, vol:vol), separated on a silica gel G thin-layer chromatogram (developed in heptane:ethylether:acetic acid, 90:30:1), and quantified by scintillation counting with the use of an internal standard for recovery.

Row | Compound | cholesteryl [14C] oleate formed, Repeat 1 (0.01 uM compound) | cholesteryl [14C] oleate formed, Repeat 2 (0.01 uM compound) | cholesteryl [14C] oleate formed, Repeat 3 (0.01 uM compound) | cholesteryl [14C] oleate formed, Repeat 4 (0.01 uM compound) | cholesteryl [14C] oleate formed, Repeat 1 (0.03 uM compound) | cholesteryl [14C] oleate formed, Repeat 2 (0.03 uM compound) | cholesteryl [14C] oleate formed, Repeat 3 (0.03 uM compound) | cholesteryl [14C] oleate formed, Repeat 4 (0.03 uM compound) | cholesteryl [14C] oleate formed, Repeat 1 (0.06 uM compound) | cholesteryl [14C] oleate formed, Repeat 2 (0.06 uM compound) | cholesteryl [14C] oleate formed, Repeat 3 (0.06 uM compound) | cholesteryl [14C] oleate formed, Repeat 4 (0.06 uM compound) | cholesteryl [14C] oleate formed, Repeat 1 (0.1 uM compound) | cholesteryl [14C] oleate formed, Repeat 2 (0.1 uM compound) | cholesteryl [14C] oleate formed, Repeat 3 (0.1 uM compound) | cholesteryl [14C] oleate formed, Repeat 4 (0.1 uM compound) | cholesteryl [14C] oleate formed, Repeat 1 (0.3 uM compound) | cholesteryl [14C] oleate formed, Repeat 2 (0.3 uM compound) | cholesteryl [14C] oleate formed, Repeat 3 (0.3 uM compound) | cholesteryl [14C] oleate formed, Repeat 4 (0.3 uM compound) | further results
1 | CCC(C)n1ncn(-c2ccc(N3CCN(c4ccc(OCC5COC(Cn6cncn6)(c6ccc(Cl)cc6Cl)O5)cc4)CC3)cc2)c1=O (stereo not shown) [Itra-C] | 2.751 nanomoles formed per hour per milligram cell protein | 4.364 nanomoles formed per hour per milligram cell protein | 5.964 nanomoles formed per hour per milligram cell protein | 6.001 nanomoles formed per hour per milligram cell protein | 3.794 nanomoles formed per hour per milligram cell protein | 3.288 nanomoles formed per hour per milligram cell protein | 5.048 nanomoles formed per hour per milligram cell protein | 4.017 nanomoles formed per hour per milligram cell protein | 2.064 nanomoles formed per hour per milligram cell protein | 2.2038 nanomoles formed per hour per milligram cell protein | 2.593 nanomoles formed per hour per milligram cell protein | 3.086 nanomoles formed per hour per milligram cell protein | 1.063 nanomoles formed per hour per milligram cell protein | 0.9711 nanomoles formed per hour per milligram cell protein | 0.7465 nanomoles formed per hour per milligram cell protein | 0.811 nanomoles formed per hour per milligram cell protein | 0.4254 nanomoles formed per hour per milligram cell protein | 0.7413 nanomoles formed per hour per milligram cell protein | 0.1456 nanomoles formed per hour per milligram cell protein | 0.04925 nanomoles formed per hour per milligram cell protein | IC50 (IC50 (concentration at which each compound inhibited cholesterol esterification by 50%), 10% FCS, 4 h then 2 h [14C] oleate pulse): 35 nM
2 | CCC(C)n1ncn(-c2ccc(N3CCN(c4ccc(OCC5COC(Cn6cncn6)(c6ccc(Cl)cc6Cl)O5)cc4)CC3)cc2)c1=O (stereo not shown) [Itra-D] | 5.124 nanomoles formed per hour per milligram cell protein | 4.829 nanomoles formed per hour per milligram cell protein | 5.364 nanomoles formed per hour per milligram cell protein | 5.55 nanomoles formed per hour per milligram cell protein | 5.201 nanomoles formed per hour per milligram cell protein | 5.414 nanomoles formed per hour per milligram cell protein | 4.815 nanomoles formed per hour per milligram cell protein | 5.633 nanomoles formed per hour per milligram cell protein | 4.957 nanomoles formed per hour per milligram cell protein | 4.372 nanomoles formed per hour per milligram cell protein | 4.6935 nanomoles formed per hour per milligram cell protein | 4.899 nanomoles formed per hour per milligram cell protein | 4.223 nanomoles formed per hour per milligram cell protein | 3.931 nanomoles formed per hour per milligram cell protein | 3.618 nanomoles formed per hour per milligram cell protein | 3.755 nanomoles formed per hour per milligram cell protein | 1.696 nanomoles formed per hour per milligram cell protein | 0.8471 nanomoles formed per hour per milligram cell protein | 0.9245 nanomoles formed per hour per milligram cell protein | 0.77 nanomoles formed per hour per milligram cell protein | cholesteryl [14C] oleate formed, Repeat 1 (1 uM compound): 0.3184 nanomoles formed per hour per milligram cell protein; cholesteryl [14C] oleate formed, Repeat 2 (1 uM compound): 0.2982 nanomoles formed per hour per milligram cell protein; cholesteryl [14C] oleate formed, Repeat 3 (1 uM compound): 0.3042 nanomoles formed per hour per milligram cell protein; cholesteryl [14C] oleate formed, Repeat 4 (1 uM compound): 0.4741 nanomoles formed per hour per milligram cell protein; IC50 (read-out: IC50 (concentration at which each compound inhibited cholesterol esterification by 50%), 10% FCS, 4 h then 2 h [14C] oleate pulse): 175 nM

Reference: PMC6952396, “Structural basis for itraconazole-mediated NPC1 inhibition” (Nature Communications, 2020)
